From patent US9623028B2, “Methods of treating a cancer using substituted pyrrolopyrimidine compounds, compositions thereof” (Signal Pharmaceuticals, LLC, priority 2014, dated 2017)
Like-named read-outs stand apart in the source and are kept apart here.

Tested on: breast cancer cell lines
Experiment: cells
Settings: for IC50: read-out: Growth Inhibition IC50; for GI50: read-out: Growth inhibition GI50
[1] = Homo sapiens, MDA-MB-175-VII, 96 h

IC50 (96 h): 419 nM | GI50 (96 h): 116 nM | IC50 (EFM-192A, 96 h): 1280 nM | GI50 (EFM-192A, 96 h): 294 nM | IC50 (HCC202, 96 h): 190 nM | GI50 (HCC202, 96 h): 28 nM | IC50 (HCC1500, 96 h): 2280 nM | GI50 (HCC1500, 96 h): 103 nM | IC50 (Homo sapiens, AU565, 96 h): 21 nM | GI50 (Homo sapiens, AU565, 96 h): 16 nM | IC50 (Homo sapiens, BT-20, 96 h): 44 nM | GI50 (Homo sapiens, BT-20, 96 h): 28 nM | IC50 (Homo sapiens, BT-474, 96 h): 595 nM | GI50 (Homo sapiens, BT-474, 96 h): 10000 nM | IC50 (Homo sapiens, BT-483, 96 h): 3400 nM | IC50 (Homo sapiens, BT-549, 96 h): 66 nM | GI50 (Homo sapiens, BT-549, 96 h): 34 nM | IC50 (Homo sapiens, CAL-51, 96 h): 10 nM | GI50 (Homo sapiens, CAL-51, 96 h): 9 nM | IC50 (Homo sapiens, CAL-85-1, 96 h): 93 nM | GI50 (Homo sapiens, CAL-85-1, 96 h): 29 nM | IC50 (Homo sapiens, CAL-120, 96 h): 272 nM | GI50 (Homo sapiens, CAL-120, 96 h): 10000 nM | IC50 (Homo sapiens, CAL-148, 96 h): 168 nM | GI50 (Homo sapiens, CAL-148, 96 h): 47 nM | IC50 (Homo sapiens, CAMA-1, 96 h): 763 nM | GI50 (Homo sapiens, CAMA-1, 96 h): 590 nM | IC50 (Homo sapiens, DU-4475, 96 h): 246 nM | GI50 (Homo sapiens, DU-4475, 96 h): 38 nM | IC50 (Homo sapiens, EFM-19, 96 h): 181 nM | GI50 (Homo sapiens, EFM-19, 96 h): 35 nM | IC50 (Homo sapiens, EVSA-T, 96 h): 206 nM | GI50 (Homo sapiens, EVSA-T, 96 h): 6000 nM | IC50 (Homo sapiens, HCC38, 96 h): 12 nM | GI50 (Homo sapiens, HCC38, 96 h): 9 nM | IC50 (Homo sapiens, HCC1143, 96 h): 481 nM | GI50 (Homo sapiens, HCC1143, 96 h): 215 nM | IC50 (Homo sapiens, HCC1187, 96 h): 31 nM | GI50 (Homo sapiens, HCC1187, 96 h): 27 nM | IC50 (Homo sapiens, HCC1419, 96 h): 2510 nM | GI50 (Homo sapiens, HCC1419, 96 h): 10000 nM | IC50 (Homo sapiens, HCC1428, 96 h): 472 nM | GI50 (Homo sapiens, HCC1428, 96 h): 326 nM | IC50 (Homo sapiens, HCC1569, 96 h): 408 nM | GI50 (Homo sapiens, HCC1569, 96 h): 88 nM | IC50 (Homo sapiens, HCC1806, 96 h): 11 nM | GI50 (Homo sapiens, HCC1806, 96 h): 8 nM | IC50 (Homo sapiens, HCC1937, 96 h): 311 nM | GI50 (Homo sapiens, HCC1937, 96 h): 6380 nM | IC50 (Homo sapiens, HCC1954, 96 h): 68 nM | GI50 (Homo sapiens, HCC1954, 96 h): 27 nM | IC50 (Homo sapiens, HDQ-P1, 96 h): 83 nM | GI50 (Homo sapiens, HDQ-P1, 96 h): 106 nM | IC50 (Homo sapiens, Hs-578T, 96 h): 41 nM | GI50 (Homo sapiens, Hs-578T, 96 h): 47 nM | IC50 (Homo sapiens, JIMT-1, 96 h): 165 nM | GI50 (Homo sapiens, JIMT-1, 96 h): 61 nM | IC50 (Homo sapiens, MCF7, 96 h): 12 nM | GI50 (Homo sapiens, MCF7, 96 h): 11 nM | IC50 (Homo sapiens, MDA-MB-134-VI, 96 h): 3170 nM | IC50 (Homo sapiens, MDA-MB-157, 96 h): 631 nM | GI50 (Homo sapiens, MDA-MB-157, 96 h): 114 nM | IC50 [1]: 2840 nM | GI50 [1]: 5280 nM | IC50 (Homo sapiens, MDA-MB-231, 96 h): 31 nM | GI50 (Homo sapiens, MDA-MB-231, 96 h): 19 nM | IC50 (Homo sapiens, MDA-MB-361, 96 h): 1470 nM | GI50 (Homo sapiens, MDA-MB-361, 96 h): 91 nM | IC50 (Homo sapiens, MDA-MB-415, 96 h): 5510 nM | GI50 (Homo sapiens, MDA-MB-415, 96 h): 10000 nM | IC50 (Homo sapiens, MDA-MB-436, 96 h): 510 nM | GI50 (Homo sapiens, MDA-MB-436, 96 h): 999 nM | IC50 (Homo sapiens, MDA-MB-453, 96 h): 668 nM | GI50 (Homo sapiens, MDA-MB-453, 96 h): 10000 nM | IC50 (Homo sapiens, MDA-MB-468, 96 h): 24 nM | GI50 (Homo sapiens, MDA-MB-468, 96 h): 23 nM | IC50 (Homo sapiens, MFM-223, 96 h): 172 nM | GI50 (Homo sapiens, MFM-223, 96 h): 43 nM | IC50 (Homo sapiens, SK-BR-3, 96 h): 272 nM | GI50 (Homo sapiens, SK-BR-3, 96 h): 81 nM | IC50 (Homo sapiens, T47D, 96 h): 336 nM | GI50 (Homo sapiens, T47D, 96 h): 81 nM | IC50 (Homo sapiens, UACC-812, 96 h): 296 nM | GI50 (Homo sapiens, UACC-812, 96 h): 319 nM | IC50 (Homo sapiens, UACC-893, 96 h): 787 nM | IC50 (Homo sapiens, ZR-75-1, 96 h): 3310 nM | GI50 (Homo sapiens, ZR-75-1, 96 h): 32 nM | IC50 (Homo sapiens, ZR-75-30, 96 h): 715 nM | IC50 (KPL-1, 96 h): 64 nM | GI50 (KPL-1, 96 h): 126 nM | IC50 (MT-3, 96 h): 8500 nM | GI50 (MT-3, 96 h): 5760 nM
SMILES: CNC(=O)c1ccc(Nc2nc(OC(C)C)c3c(-c4ccc5nc(C)oc5c4)c[nH]c3n2)c(OC)c1 [Compound 125, 4-((4-isopropoxy-5-(2-methylbenzo[d]oxazol-6-yl)-7H-pyrrolo[2,3-d]pyrimidin-2-yl)amino)-3-methoxy-N-methylbenzamide]
IC50 (Homo sapiens, HCC70, 96 h): 268 nM | GI50 (Homo sapiens, HCC70, 96 h): 47 nM
